Each molecule was assayed on Kuramochi cells (assay: BrdU Cell Proliferation Assay). Conditions: read-out: BrdU - KURAMOCHI.1: IC50.
Assay type: cell-based
Procedure: A BrdU assay was used as a measure of proliferation based on the DNA replication process of proliferating cells. BrdU, a pyrimidine analog, is added to the cell culture and incorporated into the DNA of proliferating cells. The presence of the BrdU analog was then measured through a colorimetric ELISA. After fixation and permeabilization of cells, peroxidase-conjugated antibody recognizing BrdU is added and allowed to incubate, followed by thorough washing to remove unbound antibody. In order to quantify the amount of bound antibody, peroxidase substrate is added and produces a color that can be measured at 450 nm.
On day −1, Kuramochi cells (Sekisui XenoTech JCRB0098) were seeded at 2,000 cells/well in columns 2-12 of a 96 well plate (Corning, CLS3596) in 150 μL media and allowed to adhere overnight at 37 degree with 5% CO2.
On day 0, the source plate was prepared by adding 10 mM compounds and performing 3-fold serial dilutions for a 10-point dose response of each compound. Using a multichannel pipette, 2 μL of the contents of the source plate were stamped into an intermediate plate with 500 μL of RPMI 1640 Media, GlutaMAX Supplement (Life Technologies, 61870127) in each well of a Nunc 96 DeepWell™ plate, non-treated 96 DeepWell plate, 2 mL/well, sterile, natural, 60/cs (Sigma Z717274) and mixed thoroughly. 50 μL from each well of this intermediate plate were added to 4 wells of a 96-well plate with previously seeded Kuramochi cells.
On day 4, the plates were developed using the BrdU ELISA Cell Proliferation Assay according to manufacturer's instructions (Roche, 11647229001). Briefly, BrdU was diluted 1:100 in Gibco®, OptiMEM® and 20 μL/well was added, shaken for 10 minutes at 350 rpm, and then returned to the incubator for 1 hour. Following incubation, the medium was discarded, and the cells were fixed by adding 200 μL of Fix/Denature solution. The anti-BrdU peroxidase antibody was diluted 1:1000 in OptiMEM, added at 100 μL/well, and incubated while shaking (350 rpm) for one hour. Three washes with PBS were performed to remove any unbound antibody, followed by the addition of 100 μL of substrate solution to each well. 25 μL/well of 1M sulfuric acid solution was then added to halt the reaction, and plates were read out using an Envision spectrophotometer (Perkin Elmer) set to read 450 nm absorbance. Background absorbance values from empty wells were subtracted from all samples and then normalized to DMSO treated wells.
C[C@H](CNC(=O)C1CN(C(=O)c2cnn(Cc3ccccc3)c2)CC12CN(C(=O)C1CC1(C)C)C2)OCc1ccccc1 (stereo partly drawn) [I-7] showed an IC50 greater than 10 µM.
With CNC(=O)[C@@H](NC(=O)C1CN(C(=O)c2cnn(Cc3cccnc3)c2)CC12CN(C(=O)C1CC1(C)C)C2)[C@@H](C)OCc1ccccc1 (stereo partly drawn) [I-15] the IC50 was greater than 10 µM.
Molecule CNC(=O)[C@@H](NC(=O)[C@@H]1CN(C(=O)c2cnn(Cc3ccccc3)c2)CC12CN(C(=O)CC1CC1)C2)[C@@H](C)OCC1CCCCC1 [I-56A] has an IC50 greater than 10 µM.
With CNC(=O)[C@@H](NC(=O)[C@H]1CN(C(=O)c2cnn(Cc3ccccc3)c2)CC12CN(C(=O)[C@H]1CC1(C)C)C2)C(C)(C)SCc1ccccc1 [I-171B] the IC50 was greater than 10 µM.
With COC(=O)[C@@H](CO)NC(=O)[C@@H]1CN(C(=O)c2cnn(Cc3ccccc3)c2)CC12CN(C(=O)[C@H]1CC1(C)C)C2 [I-187A] the IC50 was greater than 10 µM.
CC1(C)C[C@@H]1C(=O)N1CC2(CN(C(=O)c3cnn(Cc4ccccc4)c3)C[C@H]2C(=O)N2CCC[C@H](OCC3CCCCC3)C2)C1 [I-236] showed an IC50 greater than 10 µM.
For CCC(CC)C(=O)N1CC2(CN(C(=O)c3cnn(Cc4ccccc4)c3)C[C@H]2C(=O)N[C@H](C(=O)NC)[C@@H](C)OCc2ccccc2)C1 [I-74A], the IC50 was greater than 10 µM.
In the case of CNC(=O)[C@@H](NC(=O)[C@H]1CN(C(=O)c2cnn(Cc3ccccc3)c2)CC12CN(C(=O)CC1CCC1)C2)[C@@H](C)OCc1ccccc1 [I-27B], the IC50 is reported as greater than 10 µM.
In the case of CNC(=O)[C@@H](NC(=O)[C@@H]1CN(C(=O)c2cnn(Cc3ccccc3)c2)CC12CN(C(=O)[C@H]1CC1(C)C)C2)[C@@H](C)OCC(F)(F)F [I-204], the IC50 is reported as greater than 10 µM.
Work on CNC(=O)[C@@H](NC(=O)[C@H]1CN(C(=O)c2cnn(Cc3ccccc3)c2)CC12CN(C(=O)[C@H]1CC1(C)C)C2)[C@@H](C)OCC1CCCCC1 [I-123B] yielded an IC50 greater than 10 µM.
CNC(=O)[C@@H](NC(=O)[C@H]1CN(C(=O)c2cnn(Cc3ccccc3)c2)CC12CN(C(=O)Cc1ccccc1)C2)[C@@H](C)OCc1ccccc1 [I-25B] gave an IC50 greater than 10 µM.
In the case of CC1(C)C[C@@H]1C(=O)N1CC2(CN(C(=O)c3cnn(Cc4ccccc4)c3)C[C@@H]2C(=O)Nc2ccc(Cc3ccccc3)nc2)C1 [I-168], the IC50 is reported as greater than 10 µM.
For CNC(=O)[C@@H](NC(=O)[C@H]1CN(C(=O)c2cnn(Cc3ccccc3)c2)CC12CN(C(=O)C1(c3ccc(C(C)(C)C)cc3)CC1)C2)[C@@H](C)OCc1ccccc1 [I-80B], the IC50 was greater than 10 µM.
CNC(=O)[C@@H](NC(=O)[C@H]1CN(C(=O)c2cnn(Cc3ccccc3)c2)CC12CN(C(=O)C1(C#N)CC1)C2)[C@@H](C)OCc1ccccc1 [I-73B] gave an IC50 greater than 10 µM.
CC1(C)C[C@@H]1C(=O)N1CC2(CN(C(=O)c3cnn(Cc4ccccc4)c3)C[C@H]2C(=O)N[C@H]2CCc3cc(Cl)ccc32)C1 [I-120A] was tested, and the IC50 was greater than 10 µM.
With CNC(=O)[C@@H](NC(=O)[C@H]1CN(C(=O)c2scnc2C(C)(C)C)CC12CN(C(=O)[C@H]1CC1(C)C)C2)[C@@H](C)OCC1CCCCC1 [I-231B] the IC50 was greater than 10 µM.
CNC(=O)[C@@H](NC(=O)[C@@H]1CN(C(=O)c2cncs2)CC12CN(C(=O)C(C)(C)C)C2)[C@@H](C)OCC1CCCCC1 [I-186A] showed an IC50 of 0.5 to 5 µM.
For CNC(=O)[C@@H](NC(=O)[C@@H]1CN(C(=O)c2cnn(CC3CCNCC3)c2)CC12CN(C(=O)[C@H]1CC1(C)C)C2)[C@@H](C)OCc1ccccc1 [I-19A], the IC50 was greater than 10 µM.
CC1(C)C[C@@H]1C(=O)N1CC2(CN(C(=O)c3cnn(Cc4ccccc4)c3)C[C@H]2C(=O)N[C@H]2CCN(c3ccccc3)C2)C1 [I-206] gave an IC50 greater than 10 µM.
CNC(=O)[C@@H](NC(=O)[C@@H]1CN(Cc2cnc[nH]2)CC12CN(C(=O)[C@H]1CC1(C)C)C2)[C@@H](C)OCc1ccccc1 [I-77A, (S)-6-((1H-imidazol-5-yl)methyl)-N-((2S,3R)-3-(benzyloxy)-1-(methylamino)-1-oxobutan-2-yl)-2-((S)-2,2-dimethylcyclopropane-1-carbonyl)-2,6-diazaspiro[3.4]octane-8-carboxamide] showed an IC50 greater than 10 µM.
Work on CNC(=O)[C@@H](NC(=O)[C@H]1CN(C(=O)c2cnn(Cc3ccccc3)c2)CC12CN(C(=O)C1C(C)(C)C1(C)C)C2)[C@@H](C)OCc1ccccc1 [I-89B] yielded an IC50 greater than 10 µM.
Molecule CC1(C)C[C@@H]1C(=O)N1CC2(CN(C(=O)c3cnn(Cc4ccccc4)c3)C[C@@H]2C(=O)Nc2cccc(-c3ccccc3)c2)C1 [I-63B] has an IC50 greater than 10 µM.
With CNC(=O)[C@@H](NC(=O)[C@H]1CN(C(=O)c2cnn(Cc3ccccc3)c2)CC12CN(C(=O)C(C)(C)C)C2)[C@@H](C)OCC1CCCCC1 [I-174B] the IC50 was greater than 10 µM.
CNC(=O)[C@@H](NC(=O)[C@@H]1CN(C(=O)c2cnn(Cc3ccccc3)c2)CC12CN(C(=O)[C@H]1CC1(C)C)C2)[C@@H](C)OCc1ccccc1O [I-251] showed an IC50 greater than 10 µM.
Molecule CC1(C)C[C@@H]1C(=O)N1CC2(CN(C(=O)c3cnn(Cc4ccccc4)c3)C[C@@H]2C(=O)N2CCCC(Cc3ccccc3)C2)C1 (stereo partly drawn) [I-91B] has an IC50 greater than 10 µM.
CO[C@H]1COCC[C@@H]1NC(=O)[C@H]1CN(C(=O)c2cnn(Cc3ccccc3)c2)CC12CN(C(=O)[C@H]1CC1(C)C)C2 [I-148B] gave an IC50 greater than 10 µM.
Work on CNC(=O)[C@H](CSCc1ccccc1)NC(=O)[C@@H]1CN(C(=O)c2cnn(Cc3ccccc3)c2)CC12CN(C(=O)[C@H]1CC1(C)C)C2 [I-225] yielded an IC50 greater than 10 µM.
With CNC(=O)[C@@H](NC(=O)[C@@H]1CN(C(=O)c2cnc(C(F)(F)F)s2)CC12CN(C(=O)[C@H]1CC1(C)C)C2)[C@@H](C)OCC1CCCCC1 [I-161A] the IC50 was greater than 10 µM.
CNC(=O)[C@H](COCc1ccccc1)NC(=O)[C@@H]1CN(C(=O)c2cnn(Cc3ccccc3)c2)CC12CN(C(=O)C1(C(F)(F)F)CC1)C2 [I-113A, (S)-6-(1-benzyl-1H-pyrazole-4-carbonyl)-N—((S)-3-(benzyloxy)-1-(methylamino)-1-oxopropan-2-yl)-2-(1-(trifluoromethyl)cyclopropane-1-carbonyl)-2,6-diazaspiro[3.4]octane-8-carboxamide] gave an IC50 greater than 10 µM.
C[C@@H](OCC1CCCCC1)[C@H](NC(=O)[C@@H]1CN(C(=O)c2ccn[nH]2)CC12CN(C(=O)[C@H]1CC1(C)C)C2)C(=O)N1CCCCC1 [I-216] showed an IC50 greater than 10 µM.
With C[C@@H](O)[C@H](NC(=O)[C@@H]1CN(C(=O)c2cnn(C)c2)CC12CN(C(=O)[C@H]1CC1(C)C)C2)C(=O)N1CCCCC1 [I-305] the IC50 was 0.5 to 5 µM.
With CNC(=O)[C@@H](NC(=O)[C@@H]1CN(C(=O)c2cccnc2)CC12CN(C(=O)[C@H]1CC1(C)C)C2)[C@@H](C)OCc1ccccc1 [I-42A] the IC50 was greater than 10 µM.
CC1(C)C[C@@H]1C(=O)N1CC2(CN(C(=O)c3cnn(Cc4ccccc4)c3)C[C@H]2C(=O)NC2CCN(C(=O)c3ccccc3)CC2)C1 [I-61A] gave an IC50 greater than 10 µM.
For CNC(=O)[C@@H](NC(=O)[C@H]1CN(C(=O)c2cnn(Cc3ccc(F)cc3)c2)CC12CN(C(=O)[C@H]1CC1(C)C)C2)[C@@H](C)OCc1ccc(F)cc1 [I-136B], the IC50 was greater than 10 µM.
CNC(=O)[C@H](CCCc1ccccc1)NC(=O)[C@@H]1CN(C(=O)c2cnn(Cc3ccccc3)c2)CC12CN(C(=O)[C@H]1CC1(C)C)C2 [I-101A] gave an IC50 greater than 10 µM.
With C[C@@H](OCC1CCCCC1)[C@H](NC(=O)[C@H]1CN(C(=O)c2cnn(Cc3ccccc3)c2)CC12CN(C(=O)[C@H]1CC1(C)C)C2)C(=O)N1CC(C)(C)C1 [I-153B] the IC50 was greater than 10 µM.
Molecule CNC(=O)[C@@H](NC(=O)[C@@H]1CN(C(=O)c2cnn(Cc3ccccc3)c2)CC12CN(C(=O)C(C)(C)C)C2)[C@@H](C)OCc1ccccc1 [I-65A] has an IC50 greater than 10 µM.
Work on CC1(C)C[C@@H]1C(=O)N1CC2(CN(C(=O)c3cnn(Cc4ccccc4)c3)C[C@H]2C(=O)N2CCC(Cc3ccccc3)CC2)C1 [I-58A] yielded an IC50 greater than 10 µM.
For CN(C(=O)[C@@H]1CCCN(C(=O)[C@@H]2CN(C(=O)c3cnn(Cc4ccccc4)c3)CC23CN(C(=O)[C@H]2CC2(C)C)C3)C1)C1CCCCC1 [I-181], the IC50 was greater than 10 µM.
For CNC(=O)[C@@H](NC(=O)[C@H]1CN(C(=O)c2cnn(CC3CCN(C(C)=O)CC3)c2)CC12CN(C(=O)[C@H]1CC1(C)C)C2)[C@@H](C)OCc1ccccc1 [I-17B], the IC50 was greater than 10 µM.
With CNC(=O)[C@@H](NC(=O)[C@@H]1CN(Cc2cnco2)CC12CN(C(=O)[C@H]1CC1(C)C)C2)[C@@H](C)OCc1ccccc1 [I-78A, (S)—N-((2S,3R)-3-(benzyloxy)-1-(methylamino)-1-oxobutan-2-yl)-2-((S)-2,2-dimethylcyclopropane-1-carbonyl)-6-(oxazol-5-ylmethyl)-2,6-diazaspiro[3.4]octane-8-carboxamide] the IC50 was greater than 10 µM.
C[C@@H](OCc1ccccc1)[C@H](NC(=O)C1CN(C(=O)c2cnn(Cc3ccccc3)c2)CC12CN(C(=O)[C@H]1CC1(C)C)C2)C(=O)O (stereo partly drawn) [I-9, (2S,3R)-2-(6-(1-benzyl-1H-pyrazole-4-carbonyl)-2-((S)-2,2-dimethylcyclopropanecarbonyl)-2,6-diazaspiro[3.4]octane-8-carboxamido)-3-(benzyloxy)butanoic acid] was tested, and the IC50 was greater than 10 µM.

— patent publication US12065445B2, “CDK2 inhibitors and methods of using the same” (Cedilla Therapeutics, Inc., priority 2021, dated 2024)
